Test results published in the supplement of paper PMC8612539.
In brackets after ≈: the same amount, converted by molar mass.

Tested on: Pasteurella multocida
Experiment: minimum inhibitory concentration (MIC)
Method: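 Broth microdilution MIC (Sensititre BOPO7F bovine plate, CLSI methods) of 19 antimicrobials against field isolates of P. multocida, M. haemolytica, H. somni (deep nasopharyngeal swabs) and E. coli, Enterococcus spp. (rectal swabs) from weaned dairy heifers. Incubation 16-24 h at 35 C. MIC is the lowest concentration preventing visible growth. Values with <= or > lie at the tested range limits. Trimethoprim-sulfamethoxazole is given as the trimethoprim component of a 1:19 mixture.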

CO/N=C(\C(=O)N[C@@H]1C(=O)N2C(C(=O)O)=C(CSC(=O)c3ccco3)CS[C@H]12)c1csc(N)n1 [Ceftiofur]
Details	minimum inhibitory concentration [µg/mL]
isolate (source animal id): 10	≤ 0.25
isolate (source animal id): 11	≤ 0.25
isolate (source animal id): 12	≤ 0.25
isolate (source animal id): 19	≤ 0.25
isolate (source animal id): 23	≤ 0.25
isolate (source animal id): 26	≤ 0.25
isolate (source animal id): 98	≤ 0.25
isolate (source animal id): 104	≤ 0.25
isolate (source animal id): 115	≤ 0.25
isolate (source animal id): 117	≤ 0.25
isolate (source animal id): 118	≤ 0.25
isolate (source animal id): 121	≤ 0.25
isolate (source animal id): 124	≤ 0.25
isolate (source animal id): 125	≤ 0.25
isolate (source animal id): 128	≤ 0.25
isolate (source animal id): 131	≤ 0.25
isolate (source animal id): 135	≤ 0.25
isolate (source animal id): 136	≤ 0.25
isolate (source animal id): 140	≤ 0.25
isolate (source animal id): 144	≤ 0.25
isolate (source animal id): 146	≤ 0.25
isolate (source animal id): 150	≤ 0.25
isolate (source animal id): 151	≤ 0.25
isolate (source animal id): 153	≤ 0.25
isolate (source animal id): 155	≤ 0.25
isolate (source animal id): 157	≤ 0.25
isolate (source animal id): 160	≤ 0.25
isolate (source animal id): 164	≤ 0.25
isolate (source animal id): 165	≤ 0.25
isolate (source animal id): 167	≤ 0.25
isolate (source animal id): 168	≤ 0.25
isolate (source animal id): 169	≤ 0.25
isolate (source animal id): 170	≤ 0.25
isolate (source animal id): 171	≤ 0.25
isolate (source animal id): 172	≤ 0.25
isolate (source animal id): 173	≤ 0.25
isolate (source animal id): 174	≤ 0.25
isolate (source animal id): 175	1 (≈ 1.91 µM)
isolate (source animal id): 176	≤ 0.25
isolate (source animal id): 177	≤ 0.25
isolate (source animal id): 178	≤ 0.25
isolate (source animal id): 179	≤ 0.25
isolate (source animal id): 182	≤ 0.25
isolate (source animal id): 192	≤ 0.25
isolate (source animal id): 193	≤ 0.25
isolate (source animal id): 195	≤ 0.25
isolate (source animal id): 196	≤ 0.25
isolate (source animal id): 197	≤ 0.25
isolate (source animal id): 198	≤ 0.25
isolate (source animal id): 199	≤ 0.25
isolate (source animal id): 200	≤ 0.25
isolate (source animal id): 201	≤ 0.25
isolate (source animal id): 203	≤ 0.25
isolate (source animal id): 204	≤ 0.25
isolate (source animal id): 205	≤ 0.25
isolate (source animal id): 206	≤ 0.25
isolate (source animal id): 207	≤ 0.25
isolate (source animal id): 208	≤ 0.25
isolate (source animal id): 209	≤ 0.25
isolate (source animal id): 210	≤ 0.25
isolate (source animal id): 213	≤ 0.25
isolate (source animal id): 216	≤ 0.25
isolate (source animal id): 223	≤ 0.25
isolate (source animal id): 227	≤ 0.25
isolate (source animal id): 229	≤ 0.25
isolate (source animal id): 233	≤ 0.25
isolate (source animal id): 234	≤ 0.25
isolate (source animal id): 237	≤ 0.25
isolate (source animal id): 241	≤ 0.25
isolate (source animal id): 245	≤ 0.25
isolate (source animal id): 247	≤ 0.25
isolate (source animal id): 250	≤ 0.25
isolate (source animal id): 254	≤ 0.25
isolate (source animal id): 255	≤ 0.25
isolate (source animal id): 258	≤ 0.25
isolate (source animal id): 261	≤ 0.25
isolate (source animal id): 262	≤ 0.25
isolate (source animal id): 269	≤ 0.25
isolate (source animal id): 270	≤ 0.25
isolate (source animal id): 274	≤ 0.25
isolate (source animal id): 275	≤ 0.25
isolate (source animal id): 276	≤ 0.25
isolate (source animal id): 277	≤ 0.25
isolate (source animal id): 278	≤ 0.25
isolate (source animal id): 279	≤ 0.25
isolate (source animal id): 280	≤ 0.25
isolate (source animal id): 284	≤ 0.25
isolate (source animal id): 285	≤ 0.25
isolate (source animal id): 287	≤ 0.25
isolate (source animal id): 290	≤ 0.25
isolate (source animal id): 294	≤ 0.25
isolate (source animal id): 295	≤ 0.25
isolate (source animal id): 296	≤ 0.25
isolate (source animal id): 307	≤ 0.25
isolate (source animal id): 310	≤ 0.25
isolate (source animal id): 311	≤ 0.25
isolate (source animal id): 312	≤ 0.25
isolate (source animal id): 313	≤ 0.25
isolate (source animal id): 315	≤ 0.25
isolate (source animal id): 316	≤ 0.25

CCC[C@@H]1C[C@@H](C(=O)N[C@@H]([C@H]2O[C@H](SC)[C@H](O)[C@@H](O)[C@H]2O)[C@H](C)Cl)N(C)C1 [Clindamycin]
Details	minimum inhibitory concentration [µg/mL]
isolate (source animal id): 10	> 16
isolate (source animal id): 11	> 16
isolate (source animal id): 12	> 16
isolate (source animal id): 19	> 16
isolate (source animal id): 23	> 16
isolate (source animal id): 26	> 16
isolate (source animal id): 98	> 16
isolate (source animal id): 104	> 16
isolate (source animal id): 115	> 16
isolate (source animal id): 117	> 16
isolate (source animal id): 118	> 16
isolate (source animal id): 121	> 16
isolate (source animal id): 124	> 16
isolate (source animal id): 125	> 16
isolate (source animal id): 128	> 16
isolate (source animal id): 131	> 16
isolate (source animal id): 135	> 16
isolate (source animal id): 136	> 16
isolate (source animal id): 140	> 16
isolate (source animal id): 144	> 16
isolate (source animal id): 146	> 16
isolate (source animal id): 150	> 16
isolate (source animal id): 151	> 16
isolate (source animal id): 153	> 16
isolate (source animal id): 155	> 16
isolate (source animal id): 157	> 16
isolate (source animal id): 160	> 16
isolate (source animal id): 164	> 16
isolate (source animal id): 165	> 16
isolate (source animal id): 167	> 16
isolate (source animal id): 168	> 16
isolate (source animal id): 169	> 16
isolate (source animal id): 170	> 16
isolate (source animal id): 171	> 16
isolate (source animal id): 172	> 16
isolate (source animal id): 173	> 16
isolate (source animal id): 174	> 16
isolate (source animal id): 175	> 16
isolate (source animal id): 176	> 16
isolate (source animal id): 177	> 16
isolate (source animal id): 178	> 16
isolate (source animal id): 179	> 16
isolate (source animal id): 182	> 16
isolate (source animal id): 192	> 16
isolate (source animal id): 193	> 16
isolate (source animal id): 195	8 (≈ 18.8 µM)
isolate (source animal id): 196	> 16
isolate (source animal id): 197	> 16
isolate (source animal id): 198	> 16
isolate (source animal id): 199	> 16
isolate (source animal id): 200	> 16
isolate (source animal id): 201	> 16
isolate (source animal id): 203	> 16
isolate (source animal id): 204	> 16
isolate (source animal id): 205	> 16
isolate (source animal id): 206	> 16
isolate (source animal id): 207	> 16
isolate (source animal id): 208	> 16
isolate (source animal id): 209	> 16
isolate (source animal id): 210	> 16
isolate (source animal id): 213	> 16
isolate (source animal id): 216	> 16
isolate (source animal id): 223	> 16
isolate (source animal id): 227	> 16
isolate (source animal id): 229	> 16
isolate (source animal id): 233	> 16
isolate (source animal id): 234	> 16
isolate (source animal id): 237	> 16
isolate (source animal id): 241	> 16
isolate (source animal id): 245	> 16
isolate (source animal id): 247	> 16
isolate (source animal id): 250	> 16
isolate (source animal id): 254	> 16
isolate (source animal id): 255	> 16
isolate (source animal id): 258	> 16
isolate (source animal id): 261	> 16
isolate (source animal id): 262	> 16
isolate (source animal id): 269	> 16
isolate (source animal id): 270	> 16
isolate (source animal id): 274	> 16
isolate (source animal id): 275	> 16
isolate (source animal id): 276	> 16
isolate (source animal id): 277	> 16
isolate (source animal id): 278	> 16
isolate (source animal id): 279	> 16
isolate (source animal id): 280	> 16
isolate (source animal id): 284	> 16
isolate (source animal id): 285	> 16
isolate (source animal id): 287	> 16
isolate (source animal id): 290	> 16
isolate (source animal id): 294	> 16
isolate (source animal id): 295	> 16
isolate (source animal id): 296	> 16
isolate (source animal id): 307	> 16
isolate (source animal id): 310	> 16
isolate (source animal id): 311	> 16
isolate (source animal id): 312	> 16
isolate (source animal id): 313	> 16
isolate (source animal id): 315	> 16
isolate (source animal id): 316	> 16
